Source: ChEMBL document CHEMBL1201862, “PubChem BioAssay data set” (2004)
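Grown in 96-well plates, cells were treated for 48 hours with each compound at five concentrations. Insufficient inhibition: endpoint recorded as highest concentration tested. GI50 = concentration required for 50% inhibition of growth.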 Activity calls are given as the source filed them. Rule as the data show it: active = GI50 up to about 1.1 µM and inactive = higher.

Tests used:
Assay in all cases: NCI-60 cell line screen, 48 h
A498 = test system: A498
SK-MEL-5 = test system: SK-MEL-5
HCC 2998 = test system: HCC 2998
NCI-H522 = test system: NCI-H522
Malme-3M = test system: Malme-3M
A549 = test system: A549
U-251 = test system: U-251
ACHN = test system: ACHN
RPMI-8226 = test system: RPMI-8226
NCI-H23 = test system: NCI-H23
TK-10 = test system: TK-10
SK-MEL-2 = test system: SK-MEL-2
786-0 = test system: 786-0
UACC-62 = test system: UACC-62
IGROV-1 = test system: IGROV-1
RXF 393 = test system: RXF 393
HT-29 = test system: HT-29

Measured: GI50

NC1CCCCC1.O=C(O)C1(P(=O)(O)O)CC1
inactive: A498 > 100 µM | SK-MEL-5 > 100 µM | HCC 2998 > 100 µM | NCI-H522 > 100 µM | Malme-3M > 100 µM | A549 > 100 µM | U-251 > 100 µM | ACHN > 100 µM | RPMI-8226 > 100 µM | NCI-H23 > 100 µM | TK-10 > 100 µM | SK-MEL-2 > 100 µM | 786-0 > 100 µM | UACC-62 > 100 µM | IGROV-1 > 100 µM | RXF 393 > 100 µM

CC(=O)OC1COC(n2c(=S)n(-c3ccc(C)cc3)c(=O)c3ccccc32)C(OC(C)=O)C1OC(C)=O (centres undefined)
inactive: A498 > 100 µM | SK-MEL-5 > 100 µM | HCC 2998 > 100 µM | NCI-H522 > 100 µM | Malme-3M > 100 µM | A549 > 100 µM | U-251 > 100 µM | ACHN > 100 µM | HT-29 > 100 µM | RPMI-8226 47.5 µM | NCI-H23 > 100 µM | SK-MEL-2 > 100 µM | 786-0 > 100 µM | UACC-62 > 100 µM | IGROV-1 > 100 µM | RXF 393 67.3 µM

O=S(=O)(N/N=C/c1cccc(/C=N/NS(=O)(=O)c2ccccc2)c1)c1ccccc1
inactive: A498 > 100 µM | SK-MEL-5 39.2 µM | HCC 2998 > 100 µM | Malme-3M > 100 µM | A549 79.6 µM | U-251 69.5 µM | ACHN 68.7 µM | HT-29 86.1 µM | RPMI-8226 70.8 µM | NCI-H23 87.1 µM | TK-10 47.8 µM | SK-MEL-2 > 100 µM | 786-0 > 100 µM | UACC-62 85.9 µM | IGROV-1 69.2 µM | RXF 393 51.6 µM

Cc1ccccc1NC(=O)C(=O)Cc1nc2ccccc2s1
inactive: A498 > 100 µM | SK-MEL-5 > 100 µM | HCC 2998 > 100 µM | NCI-H522 > 100 µM | Malme-3M > 100 µM | A549 > 100 µM | U-251 > 100 µM | ACHN > 100 µM | HT-29 > 100 µM | NCI-H23 > 100 µM | TK-10 > 100 µM | SK-MEL-2 > 100 µM | 786-0 > 100 µM | IGROV-1 > 100 µM | RXF 393 > 100 µM

COC(=O)c1ccccc1N1C(=O)Cc2ccccc2C1=O
inactive: SK-MEL-5 > 100 µM | HCC 2998 > 100 µM | Malme-3M > 100 µM | A549 > 100 µM | U-251 > 100 µM | ACHN > 100 µM | HT-29 > 100 µM | RPMI-8226 > 100 µM | NCI-H23 > 100 µM | TK-10 > 100 µM | SK-MEL-2 > 100 µM | 786-0 66.1 µM | UACC-62 72.6 µM | IGROV-1 > 100 µM | RXF 393 42.3 µM

Cc1[nH]c2ccccc2c1-c1n[nH]c(=O)c2ccccc12
inactive: A498 19.8 µM | SK-MEL-5 15.5 µM | HCC 2998 30.4 µM | Malme-3M 22.3 µM | A549 24.6 µM | U-251 31.5 µM | ACHN 25.7 µM | HT-29 24.1 µM | RPMI-8226 20.8 µM | NCI-H23 26 µM | TK-10 37.1 µM | SK-MEL-2 31.7 µM | 786-0 27 µM | UACC-62 19.5 µM | IGROV-1 31.5 µM | RXF 393 12.9 µM

CC(C)OC(=O)c1cccnc1/C=N/O
inactive: A498 > 100 µM | SK-MEL-5 > 100 µM | HCC 2998 > 100 µM | NCI-H522 > 100 µM | Malme-3M > 100 µM | A549 > 100 µM | U-251 > 100 µM | ACHN > 100 µM | HT-29 > 100 µM | RPMI-8226 > 100 µM | NCI-H23 > 100 µM | TK-10 > 100 µM | SK-MEL-2 > 100 µM | 786-0 > 100 µM | UACC-62 > 100 µM | IGROV-1 > 100 µM

CCC1CCCCN1CC(C(C)=O)C(c1ccccc1)c1c(O)c2ccccc2oc1=O (centres undefined)
inactive: A498 > 100 µM | SK-MEL-5 > 100 µM | NCI-H522 > 100 µM | Malme-3M > 100 µM | A549 > 100 µM | U-251 > 100 µM | ACHN > 100 µM | HT-29 > 100 µM | RPMI-8226 69.5 µM | NCI-H23 > 100 µM | TK-10 > 100 µM | SK-MEL-2 > 100 µM | 786-0 > 100 µM | UACC-62 82.2 µM | IGROV-1 > 100 µM | RXF 393 > 100 µM

N#C/C(=C1\SC(C(N)=O)=C(N)N1c1ccccc1)c1nc2ccccc2[nH]1
inactive: A498 42.6 µM | SK-MEL-5 > 100 µM | NCI-H522 > 100 µM | Malme-3M > 100 µM | A549 > 100 µM | U-251 > 100 µM | ACHN > 100 µM | HT-29 82.8 µM | NCI-H23 > 100 µM | TK-10 87.9 µM | SK-MEL-2 > 100 µM | 786-0 > 100 µM | UACC-62 > 100 µM | IGROV-1 37.3 µM

O=c1c(C(c2ccc([N+](=O)[O-])cc2)c2c(O)c3ccccc3n(-c3ccccc3)c2=O)c(O)c2ccccc2n1-c1ccccc1
inactive: SK-MEL-5 11.4 µM | HCC 2998 12.4 µM | NCI-H522 22.2 µM | Malme-3M 13 µM | A549 15.5 µM | U-251 10.2 µM | ACHN 13.9 µM | RPMI-8226 12.2 µM | NCI-H23 11.2 µM | TK-10 44 µM | SK-MEL-2 14.5 µM | 786-0 11.6 µM | UACC-62 3.76 µM | IGROV-1 6.56 µM | RXF 393 14.4 µM

NC(=O)C(=O)C1C(=O)N(c2ccccc2)N=C1N (centres undefined)
inactive: HCC 2998 > 100 µM | NCI-H522 > 100 µM | Malme-3M > 100 µM | A549 > 100 µM | ACHN 49.4 µM | HT-29 > 100 µM | RPMI-8226 > 100 µM | NCI-H23 > 100 µM | TK-10 > 100 µM | SK-MEL-2 > 100 µM | 786-0 > 100 µM | UACC-62 > 100 µM | IGROV-1 > 100 µM

O=C(CCc1ccccc1)NS(=O)(=O)c1ccccc1
inactive: A498 > 100 µM | HCC 2998 > 100 µM | NCI-H522 > 100 µM | Malme-3M > 100 µM | A549 > 100 µM | U-251 > 100 µM | ACHN > 100 µM | HT-29 > 100 µM | RPMI-8226 > 100 µM | NCI-H23 > 100 µM | TK-10 > 100 µM | SK-MEL-2 > 100 µM | 786-0 > 100 µM | UACC-62 > 100 µM | IGROV-1 > 100 µM | RXF 393 > 100 µM

CSc1nc2c(nc(N)n2C2OC(COC(C)=O)C(OC(C)=O)C(OC(C)=O)C2OC(C)=O)c(=O)n1C (centres undefined)
inactive: A498 > 100 µM | SK-MEL-5 > 100 µM | HCC 2998 > 100 µM | Malme-3M > 100 µM | A549 > 100 µM | U-251 > 100 µM | ACHN > 100 µM | HT-29 > 100 µM | RPMI-8226 > 100 µM | NCI-H23 > 100 µM | TK-10 > 100 µM | SK-MEL-2 > 100 µM | 786-0 > 100 µM | UACC-62 > 100 µM | IGROV-1 > 100 µM | RXF 393 > 100 µM

Cc1cc(N(CCC#N)S(=O)(=O)c2ccccc2)ccc1C=O
inactive: A498 > 100 µM | SK-MEL-5 > 100 µM | HCC 2998 > 100 µM | NCI-H522 > 100 µM | Malme-3M > 100 µM | A549 > 100 µM | U-251 > 100 µM | ACHN > 100 µM | HT-29 > 100 µM | RPMI-8226 > 100 µM | NCI-H23 > 100 µM | SK-MEL-2 > 100 µM | 786-0 > 100 µM | UACC-62 > 100 µM | IGROV-1 > 100 µM | RXF 393 > 100 µM

Clc1ccc2c(c1)-c1c3c(nn1-c1ccccc1)-c1ccccc1SC3O2 (centres undefined)
inactive: A498 > 100 µM | SK-MEL-5 > 100 µM | HCC 2998 > 100 µM | NCI-H522 29 µM | Malme-3M > 100 µM | A549 > 100 µM | U-251 > 100 µM | ACHN > 100 µM | HT-29 > 100 µM | RPMI-8226 > 100 µM | NCI-H23 > 100 µM | TK-10 > 100 µM | SK-MEL-2 > 100 µM | 786-0 > 100 µM | IGROV-1 > 100 µM | RXF 393 > 100 µM

CC1C=CC(C)C2(O)C(=O)NC(O)C12 (centres undefined)
inactive: A498 > 100 µM | SK-MEL-5 > 100 µM | HCC 2998 > 100 µM | NCI-H522 > 100 µM | Malme-3M > 100 µM | A549 > 100 µM | U-251 > 100 µM | ACHN > 100 µM | RPMI-8226 > 100 µM | TK-10 > 100 µM | SK-MEL-2 > 100 µM | 786-0 > 100 µM | UACC-62 > 100 µM | IGROV-1 > 100 µM | RXF 393 > 100 µM

NC(N)=NN/C(=C1/N=c2ccc([N+](=O)[O-])cc2=NC1=O)C(O)c1ccco1 (centres undefined)
inactive: A498 > 100 µM | SK-MEL-5 > 100 µM | HCC 2998 > 100 µM | NCI-H522 32.8 µM | Malme-3M > 100 µM | A549 > 100 µM | U-251 > 100 µM | ACHN > 100 µM | HT-29 > 100 µM | RPMI-8226 43.7 µM | NCI-H23 > 100 µM | TK-10 > 100 µM | SK-MEL-2 > 100 µM | 786-0 > 100 µM | UACC-62 > 100 µM | IGROV-1 > 100 µM | RXF 393 > 100 µM
